Data as given in the supplement of paper PMC10307832.

Columns and labels:
Experiment in all cases: relative viability (nuclei count vs DMSO), 5 days (fraction); higher = more cells survive
Tosedostat + Alpelisib = compound: CC(C)C[C@@H](C(=O)N[C@H](C(=O)OC1CCCC1)c1ccccc1)[C@H](O)C(=O)NO [Tosedostat] + Cc1nc(NC(=O)N2CCC[C@H]2C(N)=O)sc1-c1ccnc(C(C)(C)C(F)(F)F)c1 [Alpelisib] (partner 2 µM)
In short: (§1)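 Lung cancer cell lines were seeded in 1536-well plates and dosed by pin tool the next day, with either a single drug or a fixed anchor-drug dose combined with five library-drug doses (not always all listed) spaced in √10 steps. Five days later, one step fixed the cells and stained their nuclei (final 0.05% Triton X-100, 1% formaldehyde, 1 ug/ml Hoechst), and nuclei were counted on 4× images. Relative viability is the nuclei count in treated wells divided by the count in vehicle wells, and each value is the median of duplicate plates.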

Tosedostat + Olaparib = compound: CC(C)C[C@@H](C(=O)N[C@H](C(=O)OC1CCCC1)c1ccccc1)[C@H](O)C(=O)NO [Tosedostat] + O=C(c1cc(Cc2n[nH]c(=O)c3ccccc23)ccc1F)N1CCN(C(=O)C2CC2)CC1 [Olaparib] (partner 8 µM)
In short: as §1

[1] = compound: CC1=NN=C(O1)C2=NN=C(C=C2)N3CCC(CC3)OC4=C(C=CC(=C4)F)Cl + C[C@]1(O)C[C@@H](c2nc(-c3ccc4ccc(-c5ccccc5)nc4c3)c3c(N)nccn32)C1 [Linsitinib] (partner 1 µM)
In short: as §1

[2] = compound: CC1=NN=C(O1)C2=NN=C(C=C2)N3CCC(CC3)OC4=C(C=CC(=C4)F)Cl + CC(C)C[C@H](NC(=O)[C@H](Cc1ccccc1)NC(=O)c1cnccn1)B(O)O [Bortezomib] (partner 0.002 µM)
In short: as §1

Cell Line | relative viability (Tosedostat + Alpelisib; first compound 0.02 µM) | relative viability (Tosedostat + Alpelisib; first compound 0.06325 µM) | relative viability (Tosedostat + Alpelisib; first compound 0.2 µM) | relative viability (Tosedostat + Alpelisib; first compound 0.6325 µM) | relative viability (Tosedostat + Alpelisib; first compound 2 µM) | relative viability (Tosedostat + Olaparib; first compound 0.02 µM) | relative viability (Tosedostat + Olaparib; first compound 0.06325 µM) | relative viability (Tosedostat + Olaparib; first compound 0.2 µM) | relative viability (Tosedostat + Olaparib; first compound 0.6325 µM) | relative viability (Tosedostat + Olaparib; first compound 2 µM) | relative viability ([1]; first compound 0.253 µM) | relative viability ([1]; first compound 0.8 µM) | relative viability ([1]; first compound 2.53 µM) | relative viability ([1]; first compound 8 µM) | relative viability ([2]; first compound 0.253 µM) | relative viability ([2]; first compound 0.8 µM) | relative viability ([2]; first compound 2.53 µM) | relative viability ([2]; first compound 8 µM)
EBC-1 | 0.771 | 0.87 | 0.711 | 0.552 | 0.541 | 0.661 | 0.637 | 0.546 | 0.442 | 0.409 | 0.549 | 0.558 | 0.623 | 0.57 | 0.479 | 0.476 | 0.444 | 0.412
NCI-H2023 | 0.571 | 0.558 | 0.675 | 0.421 | 0.483 | 0.509 | 0.424 | 0.332 | 0.348 | 0.372 | 0.478 | 0.433 | 0.557 | 0.393 | 0.49 | 0.415 | 0.505 | 0.386
NCI-H838 | 1.03 | 0.903 | 1 | 1.04 | 1.17 | 0.839 | 0.716 | 0.735 | 0.739 | 0.729 | 0.919 | 0.872 | 0.93 | 0.856 | 0.697 | 0.592 | 0.553 | 0.645
NCI-H647 | 1.3 | 1.13 | 1.02 | 1.09 | 1.14 | 0.799 | 0.446 | 0.506 | 0.376 | 0.51 | 0.759 | 0.805 | 0.616 | 0.582 | 0.539 | 0.742 | 0.786 | 0.606
NCI-H1437 | 0.984 | 1.05 | 0.969 | 0.828 | 0.506 | 0.641 | 0.615 | 0.659 | 0.596 | 0.604 | 0.552 | 0.644 | 0.689 | 0.487 | 0.31 | 0.342 | 0.424 | 0.342
NCI-H3122 | 0.861 | 0.809 | 0.844 | 0.774 | 0.997 | 0.631 | 0.593 | 0.574 | 0.508 | 0.562 | 0.729 | 0.551 | 0.749 | 0.517 | 0.662 | 0.707 | 0.71 | 0.566
IA-LM | 0.735 | 0.845 | 0.714 | 0.656 | 0.617 | 0.839 | 0.869 | 0.655 | 0.814 | 0.662 | 0.0892 | 0.0763 | 0.1 | 0.0794 | 0.17 | 0.137 | 0.132 | 0.186
PC-14 | 0.806 | 0.903 | 0.956 | 0.899 | 0.786 | 0.264 | 0.256 | 0.193 | 0.152 | 0.122 | 0.783 | 0.732 | 0.777 | 0.739 | 0.782 | 0.655 | 0.681 | 0.741
NCI-H23 | 0.615 | 0.745 | 0.536 | 0.513 | 0.538 | 0.323 | 0.238 | 0.294 | 0.252 | 0.191 | 0.482 | – | 0.543 | 0.521 | 0.948 | – | 0.894 | 0.838
